{"source": "PubChem BioAssay AID1963960", "about": "(Molecular Pharmacology Branch, DTP, NCI, 2024)", "system": "MDA-MB-468 spheroids with HUVEC/MSC, viability", "assay": "Anticancer human tumor MDA-MB-468 cell line growth inhibition [PI3K];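 as to all read-outs here: spheroids exposed to agents for seven days before readout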;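 as to viability, T/C: 100% = DMSO vehicle control viability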", "conditions": "for IC50: curve of first compound; for viability, T/C: stronger effect = lower value", "method_in_brief": "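Agents were dosed from a top concentration near clinical Cmax (otherwise 10 microM) in half-log decrements, alone or combined with PI3K inhibitors. The spheroids contain tumor cells plus endothelial (HUVEC) and MSC stroma; viability is measured.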", "key": {"[1]": {"conditions": "second compound 0.0316 µM, first compound 0.0316 µM"}, "[2]": {"conditions": "second compound 0.0316 µM, first compound 0.1 µM"}, "[3]": {"conditions": "second compound 0.1 µM, first compound 0.0316 µM"}, "[4]": {"conditions": "second compound 0.1 µM, first compound 0.1 µM"}, "[5]": {"conditions": "second compound 0.316 µM, first compound 0.0316 µM"}, "[6]": {"conditions": "second compound 0.316 µM, first compound 0.1 µM"}, "[7]": {"conditions": "second compound 1 µM, first compound 0.0316 µM"}, "[8]": {"conditions": "second compound 1 µM, first compound 0.1 µM"}, "[9]": {"conditions": "second compound 3.16 µM, first compound 0.0316 µM"}, "[10]": {"conditions": "second compound 3.16 µM, first compound 0.1 µM"}, "[11]": {"conditions": "second compound 10 µM, first compound 0.0316 µM"}, "[12]": {"conditions": "second compound 10 µM, first compound 0.1 µM"}}, "data": [{"smiles": "CC(=O)c1c(C)c2cnc(Nc3ccc(N4CCNCC4)cn3)nc2n(C2CCCC2)c1=O", "note": "+ CC(Nc1ncnc2nc[nH]c12)c1cc2cccc(Cl)c2c(=O)n1-c1ccccc1", "values": [{"measurement": "IC50", "setting": "second compound 0.0316 µM", "result": "> 100", "unit": "nM"}, {"measurement": "IC50", "setting": "second compound 0.1 µM", "result": "> 100", "unit": "nM"}, {"measurement": "IC50", "setting": "second compound 0.316 µM", "result": "> 100", "unit": "nM"}, {"measurement": "IC50", "setting": "second compound 1 µM", "result": "> 100", "unit": "nM"}, {"measurement": "IC50", "setting": "second compound 3.16 µM", "result": "> 100", "unit": "nM"}, {"measurement": "IC50", "setting": "second compound 10 µM", "result": "< 0.316", "unit": "nM"}, {"measurement": "viability, T/C", "setting": "second compound 0.0316 µM, first compound 0.000316 µM", "result": 92.6, "unit": "%"}, {"measurement": "viability, T/C", "setting": "second compound 0.0316 µM, first compound 0.001 µM", "result": 93.9, "unit": "%"}, {"measurement": "viability, T/C", "setting": "second compound 0.0316 µM, first compound 0.00316 µM", "result": 84.6, "unit": "%"}, {"measurement": "viability, T/C", "setting": "second compound 0.0316 µM, first compound 0.01 µM", "result": 103, "unit": "%"}, {"measurement": "viability, T/C", "setting": "[1]", "result": 99.7, "unit": "%"}, {"measurement": "viability, T/C", "setting": "[2]", "result": 88.1, "unit": "%"}, {"measurement": "viability, T/C", "setting": "second compound 0.1 µM, first compound 0.000316 µM", "result": 88.6, "unit": "%"}, {"measurement": "viability, T/C", "setting": "second compound 0.1 µM, first compound 0.001 µM", "result": 91.2, "unit": "%"}, {"measurement": "viability, T/C", "setting": "second compound 0.1 µM, first compound 0.00316 µM", "result": 84.1, "unit": "%"}, {"measurement": "viability, T/C", "setting": "second compound 0.1 µM, first compound 0.01 µM", "result": 92.7, "unit": "%"}, {"measurement": "viability, T/C", "setting": "[3]", "result": 80, "unit": "%"}, {"measurement": "viability, T/C", "setting": "[4]", "result": 86.4, "unit": "%"}, {"measurement": "viability, T/C", "setting": "second compound 0.316 µM, first compound 0.000316 µM", "result": 84.7, "unit": "%"}, {"measurement": "viability, T/C", "setting": "second compound 0.316 µM, first compound 0.001 µM", "result": 78.9, "unit": "%"}, {"measurement": "viability, T/C", "setting": "second compound 0.316 µM, first compound 0.00316 µM", "result": 81.3, "unit": "%"}, {"measurement": "viability, T/C", "setting": "second compound 0.316 µM, first compound 0.01 µM", "result": 72.8, "unit": "%"}, {"measurement": "viability, T/C", "setting": "[5]", "result": 90, "unit": "%"}, {"measurement": "viability, T/C", "setting": "[6]", "result": 78.5, "unit": "%"}, {"measurement": "viability, T/C", "setting": "second compound 1 µM, first compound 0.000316 µM", "result": 66.4, "unit": "%"}, {"measurement": "viability, T/C", "setting": "second compound 1 µM, first compound 0.001 µM", "result": 71.4, "unit": "%"}, {"measurement": "viability, T/C", "setting": "second compound 1 µM, first compound 0.00316 µM", "result": 59.3, "unit": "%"}, {"measurement": "viability, T/C", "setting": "second compound 1 µM, first compound 0.01 µM", "result": 83.3, "unit": "%"}, {"measurement": "viability, T/C", "setting": "[7]", "result": 76.2, "unit": "%"}, {"measurement": "viability, T/C", "setting": "[8]", "result": 62.8, "unit": "%"}, {"measurement": "viability, T/C", "setting": "second compound 3.16 µM, first compound 0.000316 µM", "result": 59.6, "unit": "%"}, {"measurement": "viability, T/C", "setting": "second compound 3.16 µM, first compound 0.001 µM", "result": 53.1, "unit": "%"}, {"measurement": "viability, T/C", "setting": "second compound 3.16 µM, first compound 0.00316 µM", "result": 62.3, "unit": "%"}, {"measurement": "viability, T/C", "setting": "second compound 3.16 µM, first compound 0.01 µM", "result": 58.1, "unit": "%"}, {"measurement": "viability, T/C", "setting": "[9]", "result": 67.2, "unit": "%"}, {"measurement": "viability, T/C", "setting": "[10]", "result": 58.8, "unit": "%"}, {"measurement": "viability, T/C", "setting": "second compound 10 µM, first compound 0.000316 µM", "result": 38.9, "unit": "%"}, {"measurement": "viability, T/C", "setting": "second compound 10 µM, first compound 0.001 µM", "result": 38.5, "unit": "%"}, {"measurement": "viability, T/C", "setting": "second compound 10 µM, first compound 0.00316 µM", "result": 39.3, "unit": "%"}, {"measurement": "viability, T/C", "setting": "second compound 10 µM, first compound 0.01 µM", "result": 46.7, "unit": "%"}, {"measurement": "viability, T/C", "setting": "[11]", "result": 45.7, "unit": "%"}, {"measurement": "viability, T/C", "setting": "[12]", "result": 46.1, "unit": "%"}]}, {"smiles": "CCCS(=O)(=O)Nc1ccc(F)c(C(=O)c2c[nH]c3ncc(-c4ccc(Cl)cc4)cc23)c1F", "note": "+ CC(Nc1ncnc2nc[nH]c12)c1cc2cccc(Cl)c2c(=O)n1-c1ccccc1", "values": [{"measurement": "IC50", "setting": "second compound 0.0316 µM", "result": 4450, "unit": "nM"}, {"measurement": "IC50", "setting": "second compound 0.1 µM", "result": 3910, "unit": "nM"}, {"measurement": "IC50", "setting": "second compound 0.316 µM", "result": 3740, "unit": "nM"}, {"measurement": "IC50", "setting": "second compound 1 µM", "result": 3490, "unit": "nM"}, {"measurement": "IC50", "setting": "second compound 3.16 µM", "result": 2530, "unit": "nM"}, {"measurement": "IC50", "setting": "second compound 10 µM", "result": "< 31.6", "unit": "nM"}, {"measurement": "viability, T/C", "setting": "[1]", "result": 96.6, "unit": "%"}, {"measurement": "viability, T/C", "setting": "[2]", "result": 86.8, "unit": "%"}, {"measurement": "viability, T/C", "setting": "second compound 0.0316 µM, first compound 0.316 µM", "result": 84.3, "unit": "%"}, {"measurement": "viability, T/C", "setting": "second compound 0.0316 µM, first compound 1 µM", "result": 83.2, "unit": "%"}, {"measurement": "viability, T/C", "setting": "second compound 0.0316 µM, first compound 3.16 µM", "result": 65.3, "unit": "%"}, {"measurement": "viability, T/C", "setting": "second compound 0.0316 µM, first compound 10 µM", "result": 15.6, "unit": "%"}, {"measurement": "viability, T/C", "setting": "[3]", "result": 92.4, "unit": "%"}, {"measurement": "viability, T/C", "setting": "[4]", "result": 90.9, "unit": "%"}, {"measurement": "viability, T/C", "setting": "second compound 0.1 µM, first compound 0.316 µM", "result": 76.3, "unit": "%"}, {"measurement": "viability, T/C", "setting": "second compound 0.1 µM, first compound 1 µM", "result": 82.2, "unit": "%"}, {"measurement": "viability, T/C", "setting": "second compound 0.1 µM, first compound 3.16 µM", "result": 58.1, "unit": "%"}, {"measurement": "viability, T/C", "setting": "second compound 0.1 µM, first compound 10 µM", "result": 13.4, "unit": "%"}, {"measurement": "viability, T/C", "setting": "[5]", "result": 83.2, "unit": "%"}, {"measurement": "viability, T/C", "setting": "[6]", "result": 89.2, "unit": "%"}, {"measurement": "viability, T/C", "setting": "second compound 0.316 µM, first compound 0.316 µM", "result": 78.3, "unit": "%"}, {"measurement": "viability, T/C", "setting": "second compound 0.316 µM, first compound 1 µM", "result": 73.6, "unit": "%"}, {"measurement": "viability, T/C", "setting": "second compound 0.316 µM, first compound 3.16 µM", "result": 57.2, "unit": "%"}, {"measurement": "viability, T/C", "setting": "second compound 0.316 µM, first compound 10 µM", "result": 14, "unit": "%"}, {"measurement": "viability, T/C", "setting": "[7]", "result": 61.7, "unit": "%"}, {"measurement": "viability, T/C", "setting": "[8]", "result": 66.1, "unit": "%"}, {"measurement": "viability, T/C", "setting": "second compound 1 µM, first compound 0.316 µM", "result": 69, "unit": "%"}, {"measurement": "viability, T/C", "setting": "second compound 1 µM, first compound 1 µM", "result": 68.3, "unit": "%"}, {"measurement": "viability, T/C", "setting": "second compound 1 µM, first compound 3.16 µM", "result": 53.6, "unit": "%"}, {"measurement": "viability, T/C", "setting": "second compound 1 µM, first compound 10 µM", "result": 11, "unit": "%"}, {"measurement": "viability, T/C", "setting": "[9]", "result": 53.6, "unit": "%"}, {"measurement": "viability, T/C", "setting": "[10]", "result": 64.3, "unit": "%"}, {"measurement": "viability, T/C", "setting": "second compound 3.16 µM, first compound 0.316 µM", "result": 49.3, "unit": "%"}, {"measurement": "viability, T/C", "setting": "second compound 3.16 µM, first compound 1 µM", "result": 57.7, "unit": "%"}, {"measurement": "viability, T/C", "setting": "second compound 3.16 µM, first compound 3.16 µM", "result": 48.4, "unit": "%"}, {"measurement": "viability, T/C", "setting": "second compound 3.16 µM, first compound 10 µM", "result": 11.2, "unit": "%"}, {"measurement": "viability, T/C", "setting": "[11]", "result": 40.3, "unit": "%"}, {"measurement": "viability, T/C", "setting": "[12]", "result": 39.3, "unit": "%"}, {"measurement": "viability, T/C", "setting": "second compound 10 µM, first compound 0.316 µM", "result": 40.6, "unit": "%"}, {"measurement": "viability, T/C", "setting": "second compound 10 µM, first compound 1 µM", "result": 42.9, "unit": "%"}, {"measurement": "viability, T/C", "setting": "second compound 10 µM, first compound 3.16 µM", "result": 41.1, "unit": "%"}, {"measurement": "viability, T/C", "setting": "second compound 10 µM, first compound 10 µM", "result": 8.78, "unit": "%"}]}]}
